Calls of active or inactive are those of the source. The rule behind the calls is not given here.
Legend:
[1] = tested on: RAW264.7; test: Inhibition of LPS-induced NF-kappaB activation in mouse RAW264.7 cells expressing luciferase gene at 20 uM preincubated with compound for 30 mins followed by LPS-induction and measured after 6 hrs by luciferase reporter gene assay; assay type: cell-based; conditions: time 6.5 hrs
[2] = tested on: RAW264.7; test: Inhibition of LPS-induced NF-kappaB activation in mouse RAW264.7 cells expressing luciferase gene preincubated with compound for 30 mins followed by LPS-induction and measured after 6 hrs by luciferase reporter gene assay; assay type: cell-based; conditions: dose 20.0 µM, time 6.5 hrs
[3] = tested on: BMMC; test: Anti-osteoporosis activity in C57BL/6 mouse BMMC cells assessed as reduction in RANKL-induced osteoclasts formation at 10 uM incubated for 4 days in presence of MCSF by TRAP staining based assay; assay type: functional
[4] = Toxicity in C57BL/6 mouse assessed as abnormal behavior at 60 mg/kg, IG administered every 3 days for 46 days; assay type: organism-based; conditions: in vivo, po, 1104 h, time 46 day
[5] = Toxicity in C57BL/6 mouse assessed as animal death at 60 mg/kg, IG administered every 3 days for 46 days; assay type: organism-based; conditions: in vivo, po, 1104 h, time 46 day
[6] = tested on: Mus musculus; test: Anti-osteoporosis activity in OVX-induced osteoporosis C57BL/6 mouse model assessed as prevention of bone loss in femur at 60 mg/kg, IG administered every 3 days for 8 weeks; assay type: functional, organism-based
[7] = tested on: Mus musculus; test: Anti-osteoporosis activity in OVX-induced osteoporosis C57BL/6 mouse model assessed as increase in connectivity density in femur at 60 mg/kg, IG administered every 3 days for 8 weeks; assay type: functional, organism-based
[8] = tested on: Mus musculus; test: Anti-osteoporosis activity in OVX-induced osteoporosis C57BL/6 mouse model assessed as increase in BV/TV in femur at 60 mg/kg, IG administered every 3 days for 8 weeks; assay type: functional, organism-based
[9] = tested on: BMMC; test: Cytotoxicity against mouse BMMC cells assessed as reduction in cell viability at 10 uM incubated for 4 days by MTT assay; assay type: toxicity, cell-based; conditions: 96 h, time 4 day
[10] = tested on: Mus musculus; test: Anti-osteoporosis activity in OVX-induced osteoporosis C57BL/6 mouse model assessed as prevention of bone loss in femur at 5 to 10 mg/kg, IG administered every 3 days for 8 weeks by H and E staining based analysis; assay type: functional, organism-based; conditions: dose 5-10 mg/kg
[11] = Toxicity in C57BL/6 mouse assessed as animal death at 5 to 10 mg/kg, IG administered every 3 days for 46 days; assay type: organism-based; conditions: in vivo, po, 1104 h, dose 5-10 mg/kg, time 46 day
[12] = tested on: RAW264.7; test: Downregulation of p65 expression in RANKL-induced mouse RAW264.7 cells expressing NFATc1 at 10 uM pretreated with compound for 4 hrs followed by RANKL-induction and measured after 24 hrs by Western blot analysis; assay type: functional, cell-based; conditions: time 28.0 hrs
[13] = tested on: RAW264.7; test: Inhibition of RANKL-induced NF-kappaB activation in mouse RAW264.7 cells expressing luciferase gene assessed as reduction in p65 protein level in nucleus preincubated with compound for 4 hrs followed by LPS-induction and measured after 6 hrs by Western blot analysis; assay type: cell-based; conditions: dose 1-10 µM, time 10.0 hrs
[14] = tested on: Mus musculus; test: Anti-osteoporosis activity in OVX-induced osteoporosis C57BL/6 mouse model assessed as downregulation of NFATc1 expression in bone at 5 to 10 mg/kg, IG administered every 3 days for 8 weeks by IHC analysis; assay type: functional, organism-based; conditions: dose 5-10 mg/kg
[15] = tested on: Mus musculus; test: Anti-osteoporosis activity in OVX-induced osteoporosis C57BL/6 mouse model assessed as increase in BV/TV in femur at 5 to 10 mg/kg, IG administered every 3 days for 8 weeks; assay type: functional, organism-based; conditions: dose 5-10 mg/kg
[16] = tested on: Mus musculus; test: Anti-osteoporosis activity in OVX-induced osteoporosis C57BL/6 mouse model assessed as increase in connectivity density in femur at 5 to 10 mg/kg, IG administered every 3 days for 8 weeks; assay type: functional, organism-based; conditions: dose 5-10 mg/kg
[17] = tested on: Mus musculus; test: Anti-osteoporosis activity in OVX-induced osteoporosis C57BL/6 mouse model assessed as downregulation of p65 expression in bone at 5 to 10 mg/kg, IG administered every 3 days for 8 weeks by IHC analysis; assay type: functional, organism-based; conditions: dose 5-10 mg/kg
[18] = tested on: Mus musculus; test: Anti-osteoporosis activity in OVX-induced osteoporosis C57BL/6 mouse model assessed as prevention of bone loss in femur at 10 mg/kg, IG administered every 3 days for 8 weeks; assay type: functional, organism-based
[19] = tested on: BMMC; test: Anti-osteoclastogenesis activity in C57BL/6 mouse BMMC cells assessed as reduction in RANKL-induced osteoclasts formation incubated for 4 days in presence of MCSF by TRAP staining based assay; assay type: functional, cell-based; conditions: dose 1-10 µM, time 4.0 day
[20] = target: Transcription factor p65 (Mus musculus, UniProt Q04207); test: Binding affinity to NF-kappaB p65 in mouse RAW264.7 cells assessed as dissociation constant by SPR analysis
[21] = tested on: RAW264.7; test: Inhibition of RANKL-induced NF-kappaB activation in mouse RAW264.7 cells expressing luciferase gene preincubated with compound for 4 hrs followed by LPS-induction and measured after 6 hrs by luciferase reporter gene assay; assay type: cell-based; conditions: dose 1-10 µM, time 10.0 hrs
[22] = tested on: RAW264.7; test: Inhibition of RANKL-induced NF-kappaB activation in mouse RAW264.7 cells expressing luciferase gene assessed as suppression of IkappaBalpha degradation at 1 to 10 uM preincubated with compound for 4 hrs followed by LPS-induction and measured after 6 hrs by Western blot analysis; assay type: cell-based; conditions: dose 1-10 µM, time 10.0 hrs
[23] = tested on: BMMC; test: Anti-osteoclastogenesis activity in RANKL-induced C57BL/6 mouse BMMC cells assessed as inhibition of Atp6v0d2 mRNA expression pretreated with compound for 4 hrs followed by RANKL-induction and measured after 24 hrs by RT-PCR analysis; assay type: functional, cell-based; conditions: dose 1-10 µM, time 28.0 hrs
[24] = Toxicity in C57BL/6 mouse assessed as abnormal behavior at 5 to 10 mg/kg, IG administered every 3 days for 46 days; assay type: organism-based; conditions: in vivo, po, 1104 h, dose 5-10 mg/kg, time 46 day
[25] = tested on: BMMC; test: Anti-osteoclastogenesis activity in C57BL/6 mouse BMMC cells assessed as reduction in RANKL-induced osteoclasts formation at 5 uM incubated for 4 days in presence of MCSF by TRAP staining based assay; assay type: functional; design: scale not given: the % may be the effect or the level left; conditions: time 4 day
[26] = tested on: Mus musculus; test: Anti-osteoporosis activity in OVX-induced osteoporosis C57BL/6 mouse model assessed as prevention of bone loss in femur at 5 to 10 mg/kg, IG administered every 3 days for 8 weeks; assay type: functional, organism-based; conditions: dose 5-10 mg/kg
[27] = target: Transcription factor p65 (Mus musculus) (UniProt Q04207); test: Binding affinity to NF-kappaB p65 in mouse RAW264.7 cells assessed as thermal stabilization at 10 uM at 37 to 57 degreeC incubated for 4 hrs by CETSA assay; assay type: cell-based
[28] = tested on: BMMC; test: Anti-osteoclastogenesis activity in RANKL-induced C57BL/6 mouse BMMC cells assessed as inhibition of OSCAR mRNA expression pretreated with compound for 4 hrs followed by RANKL-induction and measured after 24 hrs by RT-PCR analysis; assay type: functional, cell-based; conditions: dose 1-10 µM, time 28.0 hrs
[29] = tested on: BMMC; test: Anti-osteoclastogenesis activity in RANKL-induced C57BL/6 mouse BMMC cells assessed as inhibition of TRAP mRNA expression pretreated with compound for 4 hrs followed by RANKL-induction and measured after 24 hrs by RT-PCR analysis; assay type: functional, cell-based; conditions: dose 1-10 µM, time 28.0 hrs
[30] = tested on: BMMC; test: Anti-osteoclastogenesis activity in RANKL-induced C57BL/6 mouse BMMC cells assessed as suppression of NFATc1 expression level in nucleus at 1 to 10 uM pretreated with compound for 4 hrs followed by RANKL-induction and measured after 24 hrs by Western blot analysis; assay type: functional, cell-based; conditions: dose 1-10 µM, time 28.0 hrs

Transcription factor p65 (Mus musculus), sequence (Q04207 whole entry): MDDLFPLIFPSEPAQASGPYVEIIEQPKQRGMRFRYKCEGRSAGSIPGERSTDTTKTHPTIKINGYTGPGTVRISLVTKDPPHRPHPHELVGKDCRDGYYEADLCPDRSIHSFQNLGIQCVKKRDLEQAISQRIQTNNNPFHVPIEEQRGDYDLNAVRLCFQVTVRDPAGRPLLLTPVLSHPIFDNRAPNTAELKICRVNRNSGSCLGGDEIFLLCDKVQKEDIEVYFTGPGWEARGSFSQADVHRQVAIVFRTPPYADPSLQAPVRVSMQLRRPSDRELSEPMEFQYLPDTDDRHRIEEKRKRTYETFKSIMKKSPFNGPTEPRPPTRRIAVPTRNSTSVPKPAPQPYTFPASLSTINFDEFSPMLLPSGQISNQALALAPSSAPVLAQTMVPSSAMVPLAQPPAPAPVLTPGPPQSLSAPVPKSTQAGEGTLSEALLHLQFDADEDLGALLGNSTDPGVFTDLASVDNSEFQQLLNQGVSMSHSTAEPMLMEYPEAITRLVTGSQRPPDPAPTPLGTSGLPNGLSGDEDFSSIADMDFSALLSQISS
Transcription factor p65, sequence (Q04207 whole entry): as above

For `CC(=O)OC[C@@H]1Cc2ccc(C)c(/C=C/C=C/C(=O)O)c2[C@H](C)C1`, the inhibition [1] was “Active”.

In the case of `C[C@@H]1C[C@@](C)(O)C[C@@H]2C=C[C@H](C)[C@H](/C=C/C=C/C(=O)O)[C@@H]12`, the inhibition [2] is reported as “Dose-Dependent Effect”.

With `CC(=O)OC[C@@H](C)C[C@@H](C)c1cccc(C)c1/C=C/C=C/C(=O)O` the Activity ([3]; time 4.0 day) was “Active” and the inhibition [2] was “Dose-Dependent Effect”.

In the case of `C[C@]12CC[C@@H]3c4ccc(O)cc4CC[C@H]3[C@@H]1CC[C@@H]2O` [ESTRADIOL], the Activity [4] is reported as “Non-Toxic”, the Activity [5] is reported as “Non-Toxic” and the Activity [6] is reported as “Active”. For the same compound, the Activity [7] was “Active” and the Activity [8] was “Active”.

With `C[C@@H]1C[C@@](C)(O)C[C@@H]2C=C[C@H](C)[C@H](/C=C/C(=O)O)[C@@H]12` the inhibition [2] was “Dose-Dependent Effect”.

With `C[C@@H]1C[C@](O)(CO)C[C@@H]2C=C[C@H](C)[C@H](/C=C/C=C/C(=O)O)[C@@H]12` the inhibition [2] was “Dose-Dependent Effect”.

With `CC(=O)OC[C@H]1C[C@@H](C)[C@H]2[C@@H](C=C[C@H](C)[C@]2(O)/C=C/C=C/C(=O)O)C1` the inhibition [2] was “Dose-Dependent Effect”.

In the case of `CC(=O)C[C@@H](C)c1cccc(C)c1/C=C/C=C/C(=O)O`, the inhibition [2] is reported as “Dose-Dependent Effect”.

For `C[C@@H]1[C@@H](Cl)[C@H](O)[C@@H]2C[C@H](CO)C[C@H](C)[C@H]2[C@@H]1/C=C/C=C/C(=O)O`, the Activity ([3]; time 4.0 day) was “Active” and the inhibition [2] was “Dose-Dependent Effect”.

For `CC(=O)OCc1ccc2c(c1/C=C/C=C/C(=O)O)[C@H](C)C[C@H](C)C2`, the inhibition [1] was “Active”.

In the case of `Cc1ccc2c(c1/C=C/C=C/C(=O)O)[C@H](C)C[C@H](CO)C2`, the inhibition [1] is reported as “Active”.

With `Cc1cccc([C@H](C)C[C@H](C)CO)c1/C=C/C=C/C(=O)O` the Activity [9] was “Non-Toxic”, the Activity ([3]; time 4 day) was 69.7% and the Activity [10] was “Active”. For the same compound, the Activity [11] was “Non-Toxic”, the Activity [12] was “Active” and the inhibition [13] was “Dose-Dependent Effect”. The Activity [14] was “Active”, the Activity [15] was “Active” and the Activity [16] was “Active”. The Activity [17] was “Active”, the Activity [18] was “Active” and the inhibition [2] was “Dose-Dependent Effect”. For the same compound, the Activity [19] was “Dose-Dependent Effect”, the Kd [20] was 44.7 µM and the inhibition [21] was “Dose-Dependent Effect”. The inhibition [22] was “Active”, the Activity [23] was “Dose-Dependent Effect” and the Activity [24] was “Non-Toxic”. The Activity [25] was 49.2%, the Activity [26] was “Active” and the Activity [27] was “Active”. The Activity [28] was “Dose-Dependent Effect”, the Activity [29] was “Dose-Dependent Effect” and the Activity [30] was “Active”.

With `CC1=C(/C=C/C=C/C(=O)O)[C@@H]2[C@H](C[C@](C)(O)C[C@H]2C)[C@@H](O)[C@H]1O` the inhibition [2] was “Dose-Dependent Effect”.

With `C[C@H]1C[C@H]2[C@@H](O)[C@H](Cl)[C@@H](C)[C@@](O)(/C=C/C=C/C(=O)O)[C@@H]2[C@@H](C)C1` the Activity ([3]; time 4.0 day) was “Active” and the inhibition [2] was “Dose-Dependent Effect”.

— ChEMBL document CHEMBL5537204, “Identifying Marine-Derived Tanzawaic Acid Derivatives as Novel Inhibitors against Osteoclastogenesis and Osteoporosis via Downregulation of NF-κB and NFATc1 Activation” (J Med Chem, 2024)
